Results taken from article PMC8612152, “Mapping Molecular Recognition of β1,3-1,4-Glucans by a Surface Glycan-Binding Protein from the Human Gut Symbiont Bacteroides ovatus” (Microbiology Spectrum, 2021).

Assays:
Type in all cases: binding
[1] = biological target: T1, BoSGBPMLG-A (Bacteroides ovatus, UniProt A0AAN3A7L1); assay: microscale thermophoresis; details: 50 mM HEPES pH 7.5, 100 mM NaCl, 5 mM CaCl2, 5 mM TCEP, 0.05% Tween 20, 25°C; protein NT-647 labelled; one-site model
T1 construct: gene BACOVA_02743; residues 24-558, signal peptide and lipidation Cys excluded, N-terminal His6 tag (pHTP1-A57), expressed in E. coli BL21(DE3); NT-647 dye labelled for MST
T1 sequence (A0AAN3A7L1 24-558): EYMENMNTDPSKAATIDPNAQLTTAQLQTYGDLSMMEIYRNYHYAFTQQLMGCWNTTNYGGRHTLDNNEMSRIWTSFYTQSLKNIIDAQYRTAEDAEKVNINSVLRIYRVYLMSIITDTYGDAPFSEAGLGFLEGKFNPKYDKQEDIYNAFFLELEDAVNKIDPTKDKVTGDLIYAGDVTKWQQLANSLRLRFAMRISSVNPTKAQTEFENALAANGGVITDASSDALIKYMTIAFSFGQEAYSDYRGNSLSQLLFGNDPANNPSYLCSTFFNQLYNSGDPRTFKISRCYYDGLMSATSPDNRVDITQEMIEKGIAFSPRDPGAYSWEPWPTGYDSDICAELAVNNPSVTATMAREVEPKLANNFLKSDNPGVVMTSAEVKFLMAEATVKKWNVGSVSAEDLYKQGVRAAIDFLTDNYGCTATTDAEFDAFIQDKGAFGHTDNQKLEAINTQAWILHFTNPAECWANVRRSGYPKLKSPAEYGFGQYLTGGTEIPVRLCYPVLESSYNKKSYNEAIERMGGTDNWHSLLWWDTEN

[2] = biological target: T2, BoSGBPMLG-A-ZB (Bacteroides ovatus, UniProt A0AAN3A7L1); assay: X-ray crystal structure of the complex, […] Å; details: co-crystallised after overnight incubation with 0.33 mM ligand, 1 mM MgCl2; pH 5.5
T2 construct: gene BACOVA_02743; residues 39-558, N-terminal His6 and Zbasic (ZB) tag (pNIC-ZB), expressed in E. coli BL21(DE3); model covers residues 40-559 as printed; 68 kDa
T2 sequence (A0AAN3A7L1 39-558): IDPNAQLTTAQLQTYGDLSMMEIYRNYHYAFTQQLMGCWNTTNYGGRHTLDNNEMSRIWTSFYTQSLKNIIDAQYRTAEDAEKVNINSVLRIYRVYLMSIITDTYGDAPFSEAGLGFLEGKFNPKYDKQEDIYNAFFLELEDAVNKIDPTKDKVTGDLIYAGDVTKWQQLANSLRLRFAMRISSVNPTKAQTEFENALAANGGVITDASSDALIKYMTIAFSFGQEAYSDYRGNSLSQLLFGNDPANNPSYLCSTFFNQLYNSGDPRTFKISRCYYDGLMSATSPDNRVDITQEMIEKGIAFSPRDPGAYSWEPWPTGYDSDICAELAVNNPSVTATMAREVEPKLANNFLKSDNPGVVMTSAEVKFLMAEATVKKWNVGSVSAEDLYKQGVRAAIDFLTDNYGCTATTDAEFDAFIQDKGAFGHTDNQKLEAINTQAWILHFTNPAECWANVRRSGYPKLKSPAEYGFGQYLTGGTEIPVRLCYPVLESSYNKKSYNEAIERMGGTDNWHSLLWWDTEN

[3] = biological target: T1, BoSGBPMLG-A; assay: microscale thermophoresis; details: 50 mM HEPES pH 7.5, 100 mM NaCl, 5 mM CaCl2, 5 mM TCEP, 0.05% Tween 20, 25°C; protein NT-647 labelled; weak, affinity not determinable (ligand solubility)

Compound: OC[C@H]1O[C@@H](O[C@H]2[C@H](O)[C@@H](O)[C@H](O[C@@H]3[C@@H](O)[C@H](O[C@H]4[C@H](O)[C@@H](O)[C@H](O[C@H]5[C@H](O)[C@@H](O)[C@H](O[C@H]6[C@H](O)[C@@H](CO)OC(O)[C@@H]6O)O[C@@H]5CO)O[C@@H]4CO)O[C@H](CO)[C@H]3O)O[C@@H]2CO)[C@H](O)[C@@H](O)[C@@H]1O (stereo partly drawn) [barley-6]
- Ka [1]: (1.53 ± 0.23) x 10^5

Compound: OC[C@H]1O[C@@H](O[C@H]2[C@H](O)[C@@H](O)[C@H](O[C@H]3[C@H](O)[C@@H](O)[C@H](O[C@@H]4[C@@H](O)[C@H](O[C@H]5[C@H](O)[C@@H](O)[C@H](O[C@H]6[C@H](O)[C@@H](O)[C@H](O[C@H]7[C@H](O)[C@@H](CO)OC(O)[C@@H]7O)O[C@@H]6CO)O[C@@H]5CO)O[C@H](CO)[C@H]4O)O[C@@H]3CO)O[C@@H]2CO)[C@H](O)[C@@H](O)[C@@H]1O (stereo partly drawn) [barley-7]
- Ka [1]: (1.06 ± 0.18) x 10^5

Compound: OC[C@H]1O[C@@H](O[C@@H]2[C@@H](O)[C@H](O[C@H]3[C@H](O)[C@@H](O)[C@H](O[C@H]4[C@H](O)[C@@H](O)[C@H](O[C@@H]5[C@@H](O)[C@H](O[C@H]6[C@H](O)[C@@H](O)[C@H](O[C@H]7[C@H](O)[C@@H](O)[C@H](O[C@H]8[C@H](O)[C@@H](CO)OC(O)[C@@H]8O)O[C@@H]7CO)O[C@@H]6CO)O[C@H](CO)[C@H]5O)O[C@@H]4CO)O[C@@H]3CO)O[C@H](CO)[C@H]2O)[C@H](O)[C@@H](O)[C@@H]1O (stereo partly drawn) [barley-8]
- Ka [1]: (4.29 ± 1.15) x 10^5

Compound: OC[C@H]1O[C@@H](O[C@H]2[C@H](O)[C@@H](O)[C@H](O[C@@H]3[C@@H](O)[C@H](O[C@H]4[C@H](O)[C@@H](O)[C@H](O[C@H]5[C@H](O)[C@@H](O)[C@H](O[C@@H]6[C@@H](O)[C@H](O[C@H]7[C@H](O)[C@@H](O)[C@H](O[C@H]8[C@H](O)[C@@H](O)[C@H](O[C@H]9[C@H](O)[C@@H](CO)OC(O)[C@@H]9O)O[C@@H]8CO)O[C@@H]7CO)O[C@H](CO)[C@H]6O)O[C@@H]5CO)O[C@@H]4CO)O[C@H](CO)[C@H]3O)O[C@@H]2CO)[C@H](O)[C@@H](O)[C@@H]1O (stereo partly drawn) [barley-9]
- X-ray crystal structure of the complex, 1.43 Å [2]: structure of BoSGBPMLG-A in complex with barley-9 (G4G3G4G4G3G4G4G3G)
- Ka [1]: (4.62 ± 1.02) × 10^5

Compound: OC[C@H]1O[C@@H](O[C@H]2[C@H](O)[C@@H](O)[C@H](O[C@H]3[C@H](O)[C@@H](O)[C@H](O[C@H]4[C@H](O)[C@@H](O)[C@H](O[C@H]5[C@H](O)[C@@H](O)[C@H](O[C@H]6[C@H](O)[C@@H](O)[C@H](O[C@H]7[C@H](O)[C@@H](O)C(O)O[C@@H]7CO)O[C@@H]6CO)O[C@@H]5CO)O[C@@H]4CO)O[C@@H]3CO)O[C@@H]2CO)[C@H](O)[C@@H](O)[C@@H]1O (stereo partly drawn) [cello-7]
- microscale thermophoresis [3]: For the more weakly binding cello-7, it was not possible to determine the affinity
